From patent publication US6800630B2, “Pyrimidine derivatives having antitumor effect” (Shionogi & Co., Ltd., priority 2000, dated 2004) come the findings set out here.

Values after ≈ are worked out from the molar mass of the structure shown.

Common to all, as to format: cell-based
In assay [1] the test system is human squamous lung cancer Ma44. The assay can be described thus: In vitro cell growth inhibition test, MTT assay. The conditions noted are these: MTT assay 4 days after compound addition. From the text: (§1) Test Example 2 In vitro cell growth inhibition test Cells and MTT assay
(§2) Human squamous lung cancer […], human squamous lung cancer Ma44, human lung adenocarcinoma A549, human colon cancer HT29 and human pancreas cancer PANC-1 were used.

The subject of assay [2] is DT-C cells (pGV-P transfected v-ki-ras-transformed NIH373 cells). The assay can be described thus: Luciferase activity of DT-C control cells (IC50-C), index of non-specific transcription-inhibitory effect or cytotoxicity. The following applies: tested concentration nearest to 50% inhibition in DT-C cells. The source says: (§3) Test Example 1 Inhibitory effect against cellular signaling derived from Ras oncogene products
(§4) Based on the reporter plasmid (pGV-P (Toyo Ink, Japan)), in which luciferase gene was ligated to SV40-derived minimal promoter, we constructed a plasmid designated pRRE3-luc by inserting 3 copies of chemically synthesized oligonucleotides (Sequence: CAGGATATGACTCT, derived from mouse NVL-3 (M. A. Reddy et al.(1992)Mol. Endocrinol., 6, 1051)) into upstream of the promoter. v-ki-ras-transformed NIH373 cells (DT cells, provided by Dr. Makoto Noda (Kyoto Univ., School of medicine)) were transfected with this plasmid by liposome-mediated transfection and transfected cell lines stably incorporated and maintained each plasmid were obtained. We named pGV-P and pRRE3-transfected cell line as DT-C and DT-R, respectively and used in the assay described below.
(§5) i) All the cell lines were cultured in Dulbecco's Modified Essential Medium (DMEM: 10% Fetal Calf Serum(FCS: Hyclone, USA)) including […] kanamycin (Meiji Seika, Japan) in humidified incubator under condition of 5% CO2 at 37° C.
(§6) ii) DT-C and DT-R cells were seeded at 2500 cells/well into flat-bottom 96 well multiplate (Sumitomo bakelite) and incubated for 24 hours.
(§7) iii) Test compounds were prepared as 1 mg/ml DMSO solution.
(§8) iv) The solution of test compounds were added to the culture. Tested compounds are used at the concentration from […] to 0.51 ng/ml with 3-fold dilution.
(§9) v) After 24 hours, the culture supernatant was completely aspirated and 20 μl of cell-lysing solution (PGC-50 (Toyo Ink, Japan)) was added before cells were dried up. In order to lyse the cells completely, multiwell plates were left at room temperature for 10 to 30 min. The plates were wrapped up and stored at −20° C. till the day of measurement.
(§10) i) Melt the samples by putting 96 well multiplate at 37° C. and add 90 μl/well 25 mM Tris (pH 7.5).
(§11) ii) Transfer 50 μl of the sample (110 μl) to the 96 well microplate (Microlite 1 (Dynatech)) for measurement.
(§12) iii) Measure the samples by the luminometer, LUMINOUS CT9000D (Dia-Yatron, Japan). We used Pickagene luminescence kit PGL2000 or LT2.0 (Toyo Ink, Japan) as enzyme substrates for luminescence measurement (50 μl/well).
(§13) i) The luciferase activity of DT-C cells and DT-R cells were plotted in the graph where the relative activity and the compound concentration were expressed as Y-axis and X-axis, respectively. We judged by the degree of dissociation between the activities of DT-C cells and DT-R cells as an index.
b) Among the points of concentration tested, the concentration which is the nearest to 50% inhibition concentration at DT-C cells (IC50-C), was shown as an index of non-specific transcription-inhibitory effect or of cytotoxicity. In case of positive compounds, 50% inhibition concentration in DT-C cells which was higher than the active concentration was expressed as IC50-C.

In assay [3] the test system is signal derived from Ras oncogene products (DT-R cells, pRRE3-luc transfected v-ki-ras-transformed NIH373 cells). The experiment in a line: Inhibitory effect against cellular signaling derived from Ras oncogene products: RRE-luciferase reporter, Minimal Active Concentration (MAC) at which DT-C and DT-R activities dissociate. The conditions noted are these: minimal concentration at which luciferase activities of DT-C and DT-R cells dissociated.
Excerpt: as §3, §4, §5, §6, §7, §8, §9, §10, §11, §12, §13
ii) Concretely, efficacy of the compound was expressed by two values described below.
a) Among the points of concentration tested, the minimal concentration (Minimal Active Concentration: MAC), at which the activities of DT-C cells and DT-R cells dissociated, was shown as an index of efficacy of the compound.

The test system of the next assay is human colon cancer HT29. The experiment in a line: In vitro cell growth inhibition test, MTT assay. The conditions noted are these: MTT assay 4 days after compound addition.
Excerpt: as §1, §2

The test system of assay [4] is human lung adenocarcinoma A549. The assay can be described thus: In vitro cell growth inhibition test, MTT assay. The following applies: MTT assay 4 days after compound addition.
Excerpt: as §1, §2

Assay [5] deals with human pancreas cancer PANC-1. The experiment in a line: In vitro cell growth inhibition test, MTT assay. The following applies: MTT assay 4 days after compound addition.
Excerpt: as §1, §2

Assay [6] concerns human squamous lung cancer RERF-RC-AI. The assay can be described thus: In vitro cell growth inhibition test, MTT assay. The conditions noted are these: MTT assay 4 days after compound addition.
Excerpt: as §1, §2

A further assay concerns H460. The experiment in a line: In vitro cell growth inhibition test, MTT assay. The conditions noted are these: MTT assay 4 days after compound addition.
Excerpt: [The source words this procedure for another cell line and reports this cell line under the same test.] as §1, §2

Consider `CCNC(=Nc1nc(C)ncc1C(C)Sc1nnc(-c2ccc([N+](=O)[O-])cc2)o1)SC` (racemic) [Compound A-22], for which the “IC50 Ma44” value in assay [1] was determined as 0.042 µg/mL (≈ 0.0914 µM). In assay [2], the “IC50 (IC50-C)” value was >10 µg/mL. Also, the “MAC (Minimal Active Concentration)” value in assay [3] worked out at 1.11 µg/mL.

Turning to `CCNC(=Nc1nc(C)ncc1C(C)Sc1nnc(-c2ccc([N+](=O)[O-])cc2)o1)NCC` (racemic) [Compound A-23], the “IC50 (IC50-C)” value in assay [2] is >10 µg/mL. The “MAC (Minimal Active Concentration)” value in assay [3] was 3.33 µg/mL.

`CNC(=Nc1nc(C)ncc1CSc1nnc(-c2ccc([N+](=O)[O-])cc2)o1)SC` [Compound A-1]: the “IC50 HT-29” value in the assay on human colon cancer HT29 was determined as 0.045 µg/mL (≈ 0.104 µM). In addition, the “IC50 Ma44” value in assay [1] worked out at 0.12 µg/mL (≈ 0.278 µM). Besides, the “IC50 A549” value in assay [4] is 0.0009 µg/mL (≈ 0.00209 µM). In addition, the “IC50 PANC-1” value in assay [5] amounted to 0.046 µg/mL (≈ 0.107 µM). The “IC50 (IC50-C)” value in assay [2] was >10 µg/mL. Further, the “MAC (Minimal Active Concentration)” value in assay [3] is 1.11 µg/mL.

Turning to `CCNC(=Nc1nc(C)ncc1CSc1nnc(-c2ccc([N+](=O)[O-])cc2)o1)SC` [Compound A-3], the “IC50 RERF-LC-AI” value in assay [6] is 0.046 µg/mL (≈ 0.103 µM). In the assay with human colon cancer HT29, the “IC50 HT-29” value came to 0.052 µg/mL (≈ 0.117 µM). Besides, in assay [1], the “IC50 Ma44” value amounted to 0.056 µg/mL (≈ 0.126 µM). In assay [4], the “IC50 A549” value is 0.063 µg/mL (≈ 0.141 µM). The “IC50 PANC-1” value in assay [5] was found to be 0.051 µg/mL (≈ 0.114 µM). Further, the “IC50 (IC50-C)” value in assay [2] is >10 µg/mL. Besides, the “MAC (Minimal Active Concentration)” value in assay [3] came to 0.37 µg/mL.

Take `CCCNC(=Nc1nc(C)ncc1CSc1nnc(-c2ccc([N+](=O)[O-])cc2)o1)SC` [Compound A-4]: the “IC50 RERF-LC-AI” value in assay [6] came to 0.03 µg/mL (≈ 0.0653 µM). Besides, in the assay on human colon cancer HT29, the “IC50 HT-29” value was 0.023 µg/mL (≈ 0.05 µM). Besides, in assay [1], the “IC50 Ma44” value worked out at 0.051 µg/mL (≈ 0.111 µM). The “IC50 A549” value in assay [4] stood at 0.038 µg/mL (≈ 0.0827 µM). The “IC50 PANC-1” value in assay [5] is 0.026 µg/mL (≈ 0.0566 µM). For the same compound, the “IC50 (IC50-C)” value in assay [2] is >10 µg/mL. The “MAC (Minimal Active Concentration)” value in assay [3] was determined as 0.37 µg/mL.

For the compound `CCSC(=Nc1nc(C)ncc1CSc1nnc(-c2ccc([N+](=O)[O-])cc2)o1)NC` [Compound A-5], the “IC50 RERF-LC-AI” value in assay [6] amounted to 0.033 µg/mL (≈ 0.0741 µM). Moreover, the “IC50 H460” value in the assay with H460 turned out to be 0.089 µg/mL (≈ 0.2 µM). Moreover, the “IC50 HT-29” value in the assay on human colon cancer HT29 came out at 0.0484 µg/mL (≈ 0.109 µM). Moreover, in assay [1], the “IC50 Ma44” value came out at 0.0446 µg/mL (≈ 0.1 µM). Further, the “IC50 A549” value in assay [4] was 0.07 µg/mL (≈ 0.157 µM). Also, the “IC50 PANC-1” value in assay [5] is 0.0665 µg/mL (≈ 0.149 µM). For the same compound, the “MAC (Minimal Active Concentration)” value in assay [3] was 0.123 µg/mL.

As for `CCNC(=Nc1nc(C)ncc1CSc1nnc(-c2ccc([N+](=O)[O-])cc2)o1)SCC` [Compound A-6], in assay [6], the “IC50 RERF-LC-AI” value turned out to be 0.015 µg/mL (≈ 0.0326 µM). For the same compound, the “IC50 H460” value in the assay on H460 is 0.0256 µg/mL (≈ 0.0557 µM). For the same compound, the “IC50 HT-29” value with human colon cancer HT29 was 0.0244 µg/mL (≈ 0.0531 µM). The “IC50 Ma44” value in assay [1] amounted to 0.0182 µg/mL (≈ 0.0396 µM). In addition, in assay [4], the “IC50 A549” value worked out at 0.0256 µg/mL (≈ 0.0557 µM). Besides, the “IC50 PANC-1” value in assay [5] worked out at 0.0148 µg/mL (≈ 0.0322 µM). Besides, the “MAC (Minimal Active Concentration)” value in assay [3] was found to be 0.0412 µg/mL.

With `CCCSC(=Nc1nc(C)ncc1CSc1nnc(-c2ccc([N+](=O)[O-])cc2)o1)NC` [Compound A-7], in assay [6], the “IC50 RERF-LC-AI” value worked out at 0.0013 µg/mL (≈ 0.00283 µM). Moreover, in the assay with H460, the “IC50 H460” value came to 0.0038 µg/mL (≈ 0.00827 µM). For the same compound, the “IC50 HT-29” value with human colon cancer HT29 turned out to be 0.0036 µg/mL (≈ 0.00783 µM). Also, in assay [1], the “IC50 Ma44” value is 0.0016 µg/mL (≈ 0.00348 µM). For the same compound, the “IC50 A549” value in assay [4] was determined as 0.0021 µg/mL (≈ 0.00457 µM). The “IC50 PANC-1” value in assay [5] turned out to be 0.0006 µg/mL (≈ 0.00131 µM). In assay [2], the “IC50 (IC50-C)” value stood at 3.33 µg/mL (≈ 7.25 µM). Further, in assay [3], the “MAC (Minimal Active Concentration)” value came out at 0.123 µg/mL.

Take `CNC(=Nc1nc(C)ncc1CSc1nnc(-c2ccc(N)cc2)o1)SC` [Compound A-10]: the “IC50 Ma44” value in assay [1] came to 0.08 µg/mL (≈ 0.199 µM). Further, in assay [2], the “IC50 (IC50-C)” value is >10 µg/mL. In assay [3], the “MAC (Minimal Active Concentration)” value stood at 1.11 µg/mL.
